From patent US20090074885A1, “Reversible Hydrophobic Modification of Drugs for Improved Delivery to Cells” (Roche Madison Inc., priority 2003, published 2009)

Tests used:
[1] = test system: MC38 metastases and hepatic cells; assay: Portal vein injection in tumor-bearing mice; assay type: in vivo, mouse
Description: For intraportal injections both the portal vein and the celiac artery were clamped to occlude blood flow into the liver. In other experiments, the portal vein and the celiac artery were not clamped, preserving full portal blood flow during the experiment. In all cases, the vena cava was not clamped in order to avoid increased pressure within the liver during the injection procedure. For experiments with occluded blood flow, the blood in the liver was flushed out with 1 ml of ITG delivered through the portal vein (1 min). Then 0.300 μmol of PI or II in 40 μl of DMF was delivered together with 400 μl of ITG via the mixing chamber. Five min after injection the livers were perfused with 3 ml of ITG to flush any drug remaining in the vasculature, and livers were sectioned as above or the hepatocytes were isolated.

hepatocytes = assay: Uptake by hepatocytes in vivo after intraportal injection (occluded blood flow); parameters: species or system mouse; settings: normal liver, portal vein injection; for cells (hepatocytes) PI positive: 0.300 μmol
Description: Uptake of BDMODS-PI by hepatocytes in vivo. Intraportal injections were conducted in order to target hepatocytes. For the injections, both the portal vein and the celiac artery were clamped to occlude blood flow into the liver. The vena cava was not clamped in order to avoid increased pressure within the liver during the injection procedure. The blood in the liver was flushed out with 1 ml of ITG delivered through the portal vein (1 min). 0.300 μmol PI or II in 40 μl of DMF was then delivered together with 400 μl ITG via the mixing chamber. 5 min after injection the livers were perfused with 3 ml of ITG to flush any drug remaining in the vasculature, and livers were sectioned as above or the hepatocytes were isolated. Slides were prepared from the resulting hepatocyte isolations for examination by fluorescent microscopy (Axioplan2 fluorescent microscope in the fluorescein fluorescent channel (λex=BP 546/90, λem=LP 515 nm filter set) due to signal intensity, magnification=400×, Zeiss) by placing a drop of the cell suspension (about 20 μl) on a clean glass slide and preparing a cell smear. Random fields were examined, and the number of positive cells was counted out of a total of 200 cells in order to determine the percentage of PI positive cells in the sample.
The amount of PI retained in hepatocytes was also quantitated following intraportal injections of PI and II. The isolated hepatocyte cell suspensions were dissolved in 0.5% octyl glycoside in 10 mM HEPES buffer, pH 7.5. Nucleic acid was then isolated from cell suspensions (0.5 ml) using phenol extraction. PI fluorescence spectra were monitored (Shimadzu RF 1501 Spectrophotometer) using an excitation wavelength of 530 nm and an emission wavelength of 617 nm. All spectra were background subtracted using the fluorescence of cell suspensions from untreated animals. PI calibration curves were generated by mixing increasing amounts of PI in each of the samples. […] The amount of PI uptake was then calculated according to the equation: Amt(%)=100×PIs/PIi, where PIs is the amount of PI in the cell suspension and PIi is the amount of PI or BDMOD-PI injected (corrected for the sample size relative to the total liver).

[2] = test system: Jurkat (human T-lymphocyte) cells; assay: In vitro cellular uptake by fluorescence microscopy, Jurkat; assay type: cell-based; settings: FIG. 5B
Description: In Vitro cellular uptake of PI, RRH-PI compounds, and IV evaluated by fluorescence measurements. […] Adherent cells were plated at 2.5×10^5 cells/well on 6-well plates 24 h prior to testing. The growth media was removed from individual wells and the drug/prodrug was immediately added to the well with the mixing chamber. […] After 30 sec the drug solution was removed (aspirated) and 2 ml complete media was added to the cells. Experiments conducted with prodrug that was hydrolyzed prior to application to the cells followed a similar protocol, however the combined solution obtained after passing through the mixing chamber was collected and allowed to sit at ambient temperature for 5 min prior to application on the cells. Experiments conducted with Calcein AM (Invitrogen, 100 μl of 20 μM solution in complete media) followed a similar protocol for drug treatment (4 min treatment). Experiments conducted with SYTOX Green (Invitrogen) followed a similar protocol for drug treatment. […] Each condition was repeated in 2 or 3 wells, and the cells were immediately examined by microscopy. Fluorescent microscopy studies were conducted with a three laser LSM 510 confocal microscope, an Axiovert S100 fluorescent microscope, or an Axioplan2 fluorescent microscope (all Zeiss) equipped with filter sets for the rhodamine fluorescence channel (λex=BP 450/12, λem=LP 590 nm filter set) and the fluorescein fluorescent channel (λex=BP 546/90, λem=LP 515 nm filter set). Imaging was performed with an AxioCam digital camera (Zeiss), with AxioVision imaging software (V 4.5, Zeiss). For all images, identical camera settings and exposure times were used on comparative sample and control images. Images were processed with Photoshop (Adobe) for level and brightness using identical settings between sample and control images. For experiments conducted on Jurkat cells (8.0×10^5 cells/ml in media), the cells were isolated by centrifugation and resuspended in ITG at a density of 4.0×10^6 cells/ml. Exposure to the drug/prodrug was conducted by passing the cells in suspension in ITG (200 μl) through the mixing chamber. […]

[3] = portal vein and celiac artery clamped (occluded blood flow)

## CCCCCCCCCCCCCCCCCC[Si](C)(C)Nc1ccc2c(c1)c(-c1ccccc1)[n+](CCC[N+](C)(CC)CC)c1cc(N[Si](C)(C)CCCCCCCCCCCCCCCCCC)ccc21.[I-].[I-] [II, 3,8-bis[((dimethyl)octadecylsilazyl)amine] 5-(3,3-diethyl-3-methylammoniumpropyl) 6-phenyl phenanthridinium diiodide]
[1]; [3]
  PI labeling after portal vein injection: prominent labeling of portal structures and adjacent cells, including hepatocytes, but not of the metastases
[1]; preserved portal blood flow
  PI labeling after portal vein injection: all metastases were PI-negative
[1]; preserved portal blood flow, listed as BDMODS-PI
  PI labeling after portal vein injection: No labeled cells in MC38 metastases
hepatocytes
  injected PI bound to hepatocyte nucleic acid: 14%
  cells (hepatocytes) PI positive: approximately 70%

## CCCCCCCCCCCCNC(=O)CCC(=CCC(=O)O)C(=O)Nc1ccc2c(c1)c(-c1ccccc1)[n+](CCC[N+](C)(CC)CC)c1cc(NC(=O)C(=CCC(=O)O)CCC(=O)NCCCCCCCCCCCC)ccc21.[I-].[I-] [III, 3,8-bis-[2-(2 carboxyethylidene)-4-(dodecarbamoyl)-1-oxo-butylamine] 5-(3,3-diethyl-3-methylammoniumpropyl) 6-phenyl phenanthridinium diiodide]
[2]
  cells stained: ~100%
  cellular uptake and staining: strong cellular uptake and staining

## CC[N+](C)(CC)CCC[n+]1c(-c2ccccc2)c2cc(N)ccc2c2ccc(N)cc21.[I-].[I-] [PI, Propidium iodide, reference compound]
[2]
  cellular uptake and staining: stained very few cells
[1]; 400 μl into portal vein of liver with MC38 metastases
  nuclear staining after portal vein injection: did not result in nuclear staining of any structures
[1]; [3]
  PI labeling after portal vein injection: a few labeled cells
hepatocytes
  injected PI bound to hepatocyte nucleic acid: 1.2%
  cells (hepatocytes) PI positive: approximately 1%
